Test system: C57BL/6 mice
Test: Intra-hippocampal Aβ40-Q22 injection, immunohistochemistry
Format: in vivo, mouse
Method: Six months old C57BL/6 mice were anesthetized with a mixture of ketamine and xylazine (120 and 10 mg/Kg respectively) i.p. and fixed to a stereotaxic frame (David Kopf Instruments, Tujunga, CaliforniaKopf). The body temperature was maintained stable with the use of a heating pad (Harvard Apparatus, Holliston, Mass.) for the total time of the surgery. A volume of 1 μl of a 10 μM fresh solution of Aβ40-Q22—chosen for its propensity to form toxic oligomers, and not fibrils, in the first few hours after solubilization—(Fossati et al., 2010) in PBS, or the vehicle for control mice, was injected in the hippocampus (Coordinates: AP=−2.7, L=−3.0 and H=−4.0, according to the Atlas of Paxinos and Franklin) at a flow rate of 0.1 μl/min. The needle (Hamilton 701 RN 10 μl syringe, RN needle 30/2″/3S) was left in place for two minutes and then slowly withdrawn. In the cases in which MTZ treatment was administered, mice were injected intraperitoneally with a solution of MTZ (20 mg/kg) 1 h before the Aβ40-Q22 intrahippocampal injection. At the selected time after injections, the animals were sacrificed by trans-cardiac perfusion (medium flow pump, Fisher Scientific 13-876-2, 10 ml/min flow rate) with PBS for 2 minutes followed by 4% paraphormaldehyde for 5 minutes. Brains were then removed from the skull and postfixed in 4% paraphormaldehyde for 2 h at 4° C. […] Brains were then washed in PBS, assembled in a plastic mold with Tissue-Tek O.C.T. compound (Fisher Scientific), and frozen with a mixture of liquid nitrogen and isopenthanol. Serial cryostat sections of 8 μm thickness were collected on positively charged microscope slides (Fisher Scientific) and stored at −80° C. until further immunohistochemical analysis.
For immunohistochemical staining, slices were warmed to RT for 5′ prior to use, rinsed in PBS and blocked with Mouse on Mouse (MOM) blocking reagent (2 drops in 2.5 ml of PBS, Vector Laboratories, Burlingame, Calif.) for 20 minutes. Incubation with the rabbit monoclonal antibody against active caspase-3 (Cell Signaling Technology) was performed overnight at 4° C. in PBS containing 0.1% triton X-100 and 5 mg/ml BSA. The day after, the sections were washed three times with PBS and incubated in Alexa Fluor 488- or 633-conjugated anti-rabbit IgG (Life Technologies; 1:200 in PBST with 5 mg/ml BSA; 1 h at RT), followed by primary anti-Aβ 6E10 (1:200 in PBS+MOM for 2 hours at RT), and by secondary Alexa Fluor 568 anti-mouse IgG. Finally, the slices were washed and the DNA counterstained with TO-PRO (Life Technologies) 1:1000 for 10 min, or with NeuN green neuronal staining (1:100 in PBS for 1 hour, Millipore, Temecula, Calif.). For staining of active microglial cells, tissue sections were incubated with anti IBA1 goat antibody (Abcam, Cambridge, Mass.) 1:200 in PBS containing 0.1% Triton and 5 mg/ml BSA for 1 hour, followed by Alexa Fluor 488 anti-goat IgG (1 hour). After washing, slides were mounted with an aqueous mounting medium (Vector Laboratories). Images were acquired in a Zeiss LSM 510 confocal microscope using 40× or 100× oil lens and processed using Image J and Adobe Photoshop. Images were acquired maintaining constant exposure for all samples across single experiments. For quantifications, stained brain slices corresponding to the injection site area of 3 or more animals were quantified with Image J. The total area of NeuN, caspase 3, Aβ and IBA1 positive cells was quantified and compared between different treatments.

[1] = MTZ IP one hour before peptide injection

**Q.** How did the “activation of caspase-3 induced by Aβ in CA1 neurons” value (20 mg/Kg MTZ IP 1 hour prior to Aβ40-Q22 injection, sacrificed 4 hours after) turn out when `CC(=O)/N=c1/sc(S(N)(=O)=O)nn1C` [MTZ, methazolamide] was run?
**A.** The value was “prevented”.

**Q.** What about the “Aβ staining in the injected hemisphere” value (Aβ in the presence or absence of MTZ, FIG. 9A) of the same compound?
**A.** The value was “similarly increased”.

**Q.** What about the “active-caspase 3 staining in IBA1- and Aβ-positive microglia” value (MTZ IP before Aβ injection) of the same compound?
**A.** Its value is “notably lower”.

**Q.** What about the “caspase activation in the vicinity of the injection site” value [1] of the same compound?
**A.** The value was “significantly reduced”.

**Q.** What about the “loss of NeuN immunoreactivity in the vicinity of the injection site” value [1] of the same compound?
**A.** The value was “significantly reduced”.

**Q.** What about the “brain entry after systemic administration” value (inferred from efficacy after IP dosing) of the same compound?
**A.** Its value is “can enter the mouse brain”.
